Tests used:
MC3T3-E1 cells [1] = assay: Effect on osteoblast proliferation (MTT); type: cell-based, mouse; conditions: compound 1, 3, 10 or 30 μM, 3 days, FIG. 1
Description: The effect on osteoblast proliferation was determined by the following method.
MC3T3-E1 cells were suspended in α-MEM and plated on each well of a 96-well microplate at a concentration of 2×10^3 cells/well. After overnight incubation in 10% fetal bovine serum (FBS)-containing α-MEM under a condition of 37° C. and 5% CO2, the culture medium was replaced with 10% FBS-containing α-MEM containing a compound at a concentration of 1, 3, 10 or 30 μM and cultured for 3 days. The cells cultured in the same manner using the medium containing the same amount of solvent only were used as a control.
Added was 3-(4,5-Dimethylthiazol-2-yl)-2,5-diphenyltetrazolium bromide (MTT) (5 mg/ml in PBS) in one-tenth amount of the culture medium 2 hours before the completion of incubation. After 2-hour cultivation, the medium was removed, formazan formed by viable cells was dissolved in DMSO and the absorbance at 570 nm (reference wavelength of 630 nm) was measured with a plate reader. The relative cell numbers were determined by calculating the values taking the control as 100 (average plus or minus standard deviation of 4 wells or more; the same hereinafter).

MC3T3-E1 cells [2] = assay: Initial osteoblast differentiation, alkaline phosphatase (ALP) activity; type: cell-based, mouse; conditions: compound 1-100 μM, 6 days; FIG. 2 solid bars
Description: (§1) MC3T3-E1 cells which are mouse pre-osteoblastic cells were suspended in α-MEM and plated on each well of a 96-well microplate at a concentration of 5×10^3 cells/well. After 2-day pre-incubation in 10% FBS-containing α-MEM under a condition of 37° C. and 5% CO2, the culture medium was replaced with 10% FBS-containing α-MEM containing a compound at a concentration of 1, 3, 10, 30 or 100 μM and the cells were cultured for 6 days. During the incubation, the culture medium was replaced once in every 3 days. The cells cultured in the same manner using the medium without coumarin compounds were used as a control.
(§2) In addition, the activity of alkaline phosphatase (ALP), a marker enzyme of initial osteoblast differentiation, was measured by the following method. After incubation, the cells were fixed with cold methanol, and the dishes were dried. 100 μl of buffer of pH 8.5 containing 2 mM magnesium chloride and 100 mM Tris-HCl, with 6.7 mM p-nitrophenylphosphate as a substrate, was dispensed in each well and allowed to react at 37° C. for 30 minutes. Then, 100 μl of 0.1 N sodium hydroxide was added to terminate the reaction, followed by measurement with a plate reader of the absorbance at 405 nm, which was determined to be the ALP activity. The value was calculated by taking the control as 100.

MC3T3-E1 cells [3] = assay: Expression of genes related to osteoblast differentiation, real-time RT-PCR; type: cell-based, mouse; conditions: compared with control
Description: The effects on the expression of various genes related to osteoblast differentiation were analyzed using the real-time RT-PCR method.
MC3T3-E1 cells were plated in each well of a 6-well plate (Greiner) at a concentration of 1.5×10^5 cells/well and cultured in the same manner as above. […] After incubation, the culture medium was removed and the cells were washed with PBS. Thereafter, “ISOGEN” (trade name, Wako Pure Chemical Industries, Ltd.) was added in an amount of 1 ml/well and the cells were collected. RNA purification was conducted according to the protocol described in the package insert of “ISOGEN”.
Reverse transcription was performed using “PrimeScript RT-PCR Kit” (trade name, TaKaRa) with 2 μg of purified RNA according to the protocol described in the package insert, thereby synthesizing the cDNA sample.
Real-time PCR was performed using “FastStart Universal SYBR Green Master (Rox)” (trade name, Roche) according to the protocol described in the package insert under the following conditions: incubation at 50° C. for 2 min and at 95° C. for 10 min, followed by 50 cycles of 15 sec at 95° C. and 1 min at 60° C. Data were analyzed with “ABI PRISM 7300 sequence detection system” (trade name, Applied Biosystems).
Primers used were as described in the following Table 2.
Data analysis was performed as follows using β-actin as an endogenous control gene by the comparative Ct method.
Δ Ct=(Ct of target gene)−(Ct of endogenous control gene)
ΔΔ Ct=(Δ Ct of target sample)−(Δ Ct of reference sample)
Relative expression level of target gene of target sample to that of reference sample=2 (^−ΔΔ^Ct)

RAW264 cells [4] = assay: Cell number (MTT) in osteoclast differentiation culture; type: cell-based, mouse; conditions: RANKL 50 ng/ml, 3 days, FIG. 7 open bars
Description: (§3) RAW264 cells were suspended in α-MEM and plated in a 96-well microplate at a concentration of 3×10^3 cells/well. The compounds of the present invention at each concentration and the osteoclast differentiation-inducing factor (RANKL) were added at 50 ng/ml and the cells were cultured for 3 days in an incubator at 37° C. and 5% CO2. After incubation, the cells were fixed with a 10% formalin solution and refixed with 100% ethanol.
In addition, after similarly cultured, the cells were counted by a conventional method using a MTT reagent, and the value calculated by taking the control as 100 was shown.

[5] = tested on: Postmenopausal osteoporosis model mice; assay: Bone formation-promoting effect in vivo, ovariectomized mice, femur pQCT; set-up: species or system mouse; conditions: OVX mice, 50 mg/kg/day oral, 30+30 days, versus OVX-Con
Description: Postmenopausal osteoporosis model mice were prepared by ovariectomy and test compounds were administrated to the mice with decreased bone mass, to examine the effects on bone formation in vivo level.
Slc; ddY mice (4 week-old, female) were purchased from Chubu Kagaku Shizai Co., Ltd. After 2 days, ovariectomy (“OVX”) or sham operation (“Sham”) was performed under Nembutal anesthesia. After the mice were bred for 1 month in order to decrease bone mass due to the progression in bone resorption, a part of mice in each group (OVX: N=5, Sham: N=3) were killed to collect the femurs. The rest of mice in the ovariectomy (“OVX”) group were divided into two groups: solvent administration group (“OVX-Con”: N=6) and auraptene administration group (50 mg/kg/day, oral administration, “OVX-AUR”: N=6) and bred for another month together with the sham operation group (Sham-Con: N=6). Thereafter, the mice were killed to collect the femurs.
The bone mineral content density and the like of the collected femurs were measured by means of pQCT (peripheral Quantitative Computed Tomography) using a bone density measuring apparatus (trade name “XCT Research SA+”, manufactured by Stratec Medizintechnik GmbH).

MC3T3-E1 cells [6] = assay: Cell number (MTT) in initial osteoblast differentiation culture; type: cell-based, mouse; conditions: compound 1-100 μM, 6 days, FIG. 2 open bars
Description: as §1
At the end of incubation, the cell number was measured by the same method as above using a MTT reagent and the value was calculated by taking the control as 100.

MC3T3-E1 cells [7] = assay: Comparison with BMP-2 and effect of BMP signal inhibitors on ALP activity; type: cell-based, mouse; conditions: 6 days
Description: as §2
Upon the addition of the sample, the cells were cultured for 6 days in the presence or absence of 10 ng/ml Noggin, a BMP inhibitor, or 1 μM Dorsomorphin, an inhibitor of type I BMP receptor (ALK) (the above concentrations are the final concentrations), and the ALP activities were measured in the same manner as above.

RAW264 cells [8] = assay: Osteoclast differentiation, TRAP activity; type: cell-based, mouse; conditions: RANKL 50 ng/ml, 3 days; FIG. 7 solid bars
Description: RAW264 cells (mouse monocyte/macrophage cell line, cell No. RCB0535) were purchased from RIKEN Cell Bank. The osteoclast differentiation-inducing factor (RANKL) was obtained from Wako Pure Chemical Industries, Ltd. Others used were the same as above.
as §3
After the dishes were dried, as an index of differentiation, the activity of tartrate-resistant acid phosphatase (TRAP), a marker enzyme of osteoclasts, was measured by the following method.
For measurement of the TRAP activity, a buffer containing 10 mM tartrate and 50 mM citrate of pH 4.6, with 3.7 mM p-nitrophenylphosphate as a substrate, was used. […] Thereafter, 100 μl of 0.1 N sodium hydroxide was added to terminate the reaction, followed by measurement of the absorbance at 405 nm with a plate reader. Each absorbance was determined to be the TRAP activity, and the value calculated by taking control as 100 was shown.

MC3T3-E1 cells [9] = assay: Osteoblast calcification, alizarin red S staining; type: cell-based, mouse; conditions: compared with control
Description: 3. Effects on Osteoblast Calcification MC3T3-E1 cells were suspended in α-MEM and plated in each well of a 96-well microplate at a concentration of 5×10^3 cells/well and pre-incubated for 2 days in 10% FBS-containing α-MEM under a condition of 37° C. and 5% CO2. Thereafter, the culture medium was replaced with 10% FBS-containing α-MEM containing a compound at a concentration of 1, 3, 10 or 30 μM, 50 μg/ml ascorbic acid and 10 mM β-glycerophosphoric acid, and the cells were cultured for 10 days. During the incubation, the culture medium was changed once in every 3 or 4 days.
After incubation, the cells were fixed with 70% ethanol, the dishes were dried, and calcium deposits were stained with a 1% alizarin red S solution. The image of the stained plate was obtained using a scanner. In addition, the degree of stain (degree of calcification) was evaluated by naked eyes.

For `CC(C)=CCC/C(C)=C/COc1ccc2ccc(=O)oc2c1` [auraptene, 2H-1-benzopyran-2-one, 7-[[(2E)-3,7-dimethyl-2,6-octadiene-1-yl]oxy]-], the “cell number of MC3T3-E1 cells (relative, control as 100)” value (MC3T3-E1 cells [1]) was “little change in cell number”, the “ALP activity (control as 100)” value (MC3T3-E1 cells [2]) was “increased in a concentration-dependent manner” and the “expression of ALP gene” value (MC3T3-E1 cells [3]; auraptene 30 μM or BMP-2 50 ng/ml, FIG. 5A) was “increased”. The “expression of osteocalcin gene” value (MC3T3-E1 cells [3]; auraptene 30 μM or BMP-2 50 ng/ml, FIG. 5B) was “increased”, the “expression of Runx 2 gene” value (MC3T3-E1 cells [3]; auraptene 30 μM or BMP-2 50 ng/ml, FIG. 5C) was “increased” and the “expression of Osterix gene” value (MC3T3-E1 cells [3]; auraptene 30 μM or BMP-2 50 ng/ml, FIG. 5D) was “increased”. The “expression of BMP-2 gene” value (MC3T3-E1 cells [3]; auraptene 30 μM, FIG. 5E) was “increased”, the “expression of BMP-4 gene” value (MC3T3-E1 cells [3]; auraptene 30 μM, FIG. 5F) was “increased” and the “cell number of RAW264 cells (control as 100)” value (RAW264 cells [4]) was “did not show a significant influence”. The “trabecular bone mineral density” value ([5]; FIG. 6A) was “tended to be high”, the “total bone mineral density” value ([5]; FIG. 6B) was “tended to be high” and the “cortical bone periosteal circumference” value ([5]; FIG. 6C) was “tended to be long”. For the same molecule, the “cortical bone endosteal circumference” value ([5]; FIG. 6D) was “tended to be long”, the “cell viability of MC3T3-E1 cells (control as 100)” value (MC3T3-E1 cells [6]) was “little influence on cell viability” and the “effect of promoting ALP activity in presence of Dorsomorphin” value (MC3T3-E1 cells [7]; Dorsomorphin 1 μM, auraptene 30 μM or BMP-2 25 ng/ml) was “diminished”. The “effect of promoting ALP activity in presence of Noggin” value (MC3T3-E1 cells [7]; Noggin 10 ng/ml, auraptene 30 μM or BMP-2 25 ng/ml) was “diminished”, the “effect of promoting ALP activity” value (MC3T3-E1 cells [7]; auraptene 30 μM versus BMP-2 25 ng/ml, FIG. 4) was “equivalent to or more than that with BMP-2 (25 ng/ml)” and the “TRAP activity as an index of osteoclast differentiation” value (RAW264 cells [8]) was “do not affect osteoclast differentiation”. The “calcified portions stained red” value (MC3T3-E1 cells [9]) was “remarkably increased compared with control”.

Reference: patent publication US8729279B2, “Agent for promoting osteoblast differentiation, pharmaceutical composition for promoting bone formation, and food for special dietary use containing auraptene analog as active ingredient” (Erina Co., Inc., priority 2010, dated 2014)
